Measured values published in patent EP1192860B1, “UVA-tracer containing disinfectant and method of determining the degree of dilution of disinfectants using UVA-tracers” (Air Liquide Santé (International), priority 2000, dated 2002).
Entries after “also recorded” stand apart in the source; their conditions may differ.

Columns and labels:
Type in all cases: physicochemical
[1] = Solubility of selected UV-A-tracers in selected concentrates; settings: for Solubilities of selected UV-A-tracers in concentrates and optically visible changes compared with the original concentrate: 0.2 g UV-A-tracer in 100 g concentrate, stirred 3 hours; for Solubility in the concentrates: all five concentrates (preparations 1 to 5)
Excerpt: Solubilities of selected UV-A-tracers in concentrates containing various active ingredient combinations (preparations 1 to 5) and optically visible changes compared with the original concentrate, "+" UV-A-tracer soluble in 100 g of preparation to at least 0.2 g, "y" the originally colourless concentrate turns yellowish as a result of the incorporation of the UV-A-tracer.

[2] = Stability investigations of UV-A-tracer-containing concentrates (optically visible changes on storage); settings: clear glass bottles, room temperature, window-sill vs dark, 3 months
Excerpt: Since the UV-A-tracers are to be used for determining the active ingredient concentrations of disinfectant solutions, the UV-A-tracer-containing concentrates must be sufficiently stable throughout the entire storage life of the commercially available disinfectant concentrates (approximately 3 years). In order to investigate the stability of the UV-A-tracers, preparations 1 to 5 to which UV-A-tracers have been added were stored in clear glass bottles at room temperature firstly on a window-sill and secondly as a reference in the dark. Over a period of 3 months, the optically visible changes of the UV-A-tracer-containing preparations stored under varying conditions were observed and, at regular time intervals, 1% dilutions of these UV-A-tracer-containing preparations in water were investigated spectroscopically.

[3] = Absorption spectrophotometric stability investigations of the incorporated UV-A-tracers
Method: The long-term stability of combinations of concentrate and UV-A-tracers in the dark and under the effect of light was investigated by reference to UV spectra. The combinations below were used (Table 7): Table 7
Following storage at room temperature for 4, 8 or 12 weeks in the dark or in daylight, 1% strength dilutions of each of the preparations in water were prepared.

[4] = Prep.4 (Combinations of aldehydes)
[5] = Prep.5 (Quat + phenoxypropanols)
[6] = amine-containing preparations (1 and 2)

Structure (SMILES)	Solubilities of selected UV-A-tracers in concentrates and optically visible changes compared with the original concentrate ([1]; Prep.1 (Quat + alkylamine))	Solubilities of selected UV-A-tracers in concentrates and optically visible changes compared with the original concentrate ([1]; Prep.2 (Quat + GuAc))	Solubilities of selected UV-A-tracers in concentrates and optically visible changes compared with the original concentrate ([1]; Prep.3 (Quat + org. acid))	Solubilities of selected UV-A-tracers in concentrates and optically visible changes compared with the original concentrate [1, 4]	Solubilities of selected UV-A-tracers in concentrates and optically visible changes compared with the original concentrate [1, 5]	Solubility in the concentrates [1]	Colour change on incorporation of the UV-A-tracer ([1]; all preparations)	Changes within the observation period ([2]; in Preparation 1)	Changes within the observation period ([2]; in Preparation 2)	Changes within the observation period ([2]; in Preparation 3)	Changes within the observation period ([2]; in Preparation 4)	Changes within the observation period ([2]; in Preparation 5)	Divergence of the absorptions between sample stored in the dark and sample exposed to daylight ([3]; in preparation 5, after 12 weeks, 1% strength dilutions in water)	Odour of the sample ([3]; in preparation 5, exposed to daylight, after 12 weeks)	Changes of the sample ([3]; in preparation 5, stored in the dark)	Colour change on incorporation of the UV-A-tracer [1, 6]	Decomposition of the UV-A-tracer ([3]; preparations 3, 4 and 5, storage in the dark and in daylight)
CC1CCC(C(C)C)C(OC(=O)c2ccccc2N)C1 (stereo not drawn) [Menthyl anthranilate, Menthyl o-aminobenzoate]	+ (UV-A-tracer soluble in 100 g of preparation to at least 0.2 g)	+ (UV-A-tracer soluble in 100 g of preparation to at least 0.2 g)	+ (UV-A-tracer soluble in 100 g of preparation to at least 0.2 g)	+ (UV-A-tracer soluble in 100 g of preparation to at least 0.2 g)	+ (UV-A-tracer soluble in 100 g of preparation to at least 0.2 g)	dissolves in all preparations	without visible colour changes	slight yellowish tinge; also recorded: slight yellow coloration	slight yellowish tinge; also recorded: slight yellow coloration	intensive yellow coloration	pale yellow-green colour	from green to yellow	significant divergence	intensive unpleasant odour	does not display any perceptible changes		
COc1ccc(C(=O)c2ccccc2)c(O)c1 [Benzophenone-3, 2-Hydroxy-4-methoxybenzophenone]	+y	+y	+ (UV-A-tracer soluble in 100 g of preparation to at least 0.2 g)	+ (UV-A-tracer soluble in 100 g of preparation to at least 0.2 g)	+ (UV-A-tracer soluble in 100 g of preparation to at least 0.2 g)	dissolves without problems				does not display changes of any kind and none						intensive yellow coloration	In none of the three disinfectants was decomposition of benzophenone-3 observed
COc1ccc(C(=O)c2ccc(OC)cc2O)c(O)c1 [Benzophenone-6, 2,2'-Dihydroxy-4,4'-dimethoxybenzophenone]	+y	+y	+y	+ (UV-A-tracer soluble in 100 g of preparation to at least 0.2 g)	+ (UV-A-tracer soluble in 100 g of preparation to at least 0.2 g)											intensive yellow coloration	
COc1cc(O)c(C(=O)c2ccccc2)cc1S(=O)(=O)O [Benzophenone-4, 2-Hydroxy-4-methoxybenzophenone-5-sulphonic acid]	+y	+y	+ (UV-A-tracer soluble in 100 g of preparation to at least 0.2 g)	+ (UV-A-tracer soluble in 100 g of preparation to at least 0.2 g)	+ (UV-A-tracer soluble in 100 g of preparation to at least 0.2 g)											intensive yellow coloration	
COc1cc(O)c(C(=O)c2cc(S(=O)(=O)[O-])c(OC)cc2O)cc1S(=O)(=O)[O-].[Na+].[Na+] [Benzophenone-9, 2,2'-dihydroxy-4,4'-dimethoxybenzophenone-5,5'-disodium sulphonate]	+y	+y	+y	+ (UV-A-tracer soluble in 100 g of preparation to at least 0.2 g)	+ (UV-A-tracer soluble in 100 g of preparation to at least 0.2 g)											intensive yellow coloration	
